Results on 4 compounds are retold here after patent US6130248A, “Tricarboxylic acid-containing oxyalkyl esters and uses thereof” (Bar-ILAn University, priority 1996, dated 2000).

Assay [1] deals with c-myc in HL-60 promyelocytic leukemia. The settings on record: cited from earlier work.
A further assay concerns neoplastic cells. The settings on record: in vitro; cited from earlier work.
The test system of another assay is cancer. The settings on record: cancer patients; cited from earlier work.
Another assay deals with HL-60 cells. As to the kind of experiment: SRB cell proliferation assay. The format is cell-based. The settings on record: Homo sapiens; HL-60, SRB. The protocol: (§1) The inhibition of cell proliferation was measured in the indicated cancer cell lines using the sulforhoamine B (SRB) assay as described by Monks et al., J. Natl. Can. Inst. […] The SRB assay is used to screen for anti-cancer drugs.

The test system of a further assay is MCF7 cells. As to the kind of experiment: SRB cell proliferation assay. To be noted: Homo sapiens. It is filed as cell-based. The protocol:
as §1

The subject of the next assay is HT-29 cells. Kind of assay: SRB cell proliferation assay. It is filed as cell-based. To be noted: Homo sapiens; HT-29, SRB. As to the method:
as §1

Another assay has as its system CFPAC cells. As to the kind of experiment: SRB cell proliferation assay. The format is cell-based. The protocol: as §1
The subject of assay [2] is 53 primary tumor cell lines. Kind of assay: Inhibition of clonogenicity of primary tumor cells. It is filed as cell-based, human. To be noted: Homo sapiens. From the text:
The tested tumor cells were from 11 non-small cell lung carcinomas, 10 breast carcinomas, 10 gastric carcinomas, 10 ovarian carcinomas, and 10 CNS tumors.

Assay [3] has as its system Au565 breast carcinoma cells. Kind of assay: Differentiation by lipid staining. It is filed as cell-based, human. The settings on record: 10 μM. From the text:
Lipid staining and/or immunochemical staining of casein can be used as a marker for cellular differentiation of breast cancer cells (Bacus et al., Md. Carcin. 3:350-362, 1990). Casein detection can be done by histochemical staining of breast cancer cells using a human antibody to human casein as described by Cheung et al., J. Clin. Invest. 75:1722-1728,which is incorporated by reference in its entirety.
In the case of the human breast carcinoma cell line Au565, 100%. Of the cells treated with 10 μM GOMB were positive for lipid staining whereas less than 1% of cells treated with the same concentration of AB were positive for lipid staining.

The subject of assay [4] is β-thalassemia and sickle-cell anemia. The settings on record: β-globin disorders; cited from earlier work.
Assay [5] relates to K562 cells (HbF). As to the kind of experiment: Hb-containing K562 cells by benzidine staining. It is filed as cell-based, human. To be noted: 0.05 mM, 5 days. The protocol:
Hb Measurement: HB was measured by benzidine staining of K562 cells after 5 days exposure to GOMB or AB according to the procedure of Fibach et al. (1989) [full cite]. Quantitative measurement of HbF in K562 culture or human erythroid cultures was determined by ion-exchange high pressure liquid chromatography (HPLC) as described by Fibach et al., Blood 81:1630-1635, 1993.
(§2) K562 cells: K562 is an erthroblast cell line that develops some properties of erythroid, megakaryocyte or monocyte cells, depending on the specific stimulus, when induced by different chemicals. K562 cells were grown in RPMI with 10% FCS, supplemented with 2 mM glutamine. Cells were incubated at 37° C. in a humidified, 5% CO2 incubator.

Another assay deals with PC3 (Prostate Carcinoma). Kind of assay: Clonogenicity of established tumor cell lines (soft agar). It is filed as cell-based, human. To be noted: Homo sapiens; PC3 clonogenicity. The protocol:
(§3) Inhibition of tumor growth was tested using cell lines as follows: […]

Another assay concerns K562 (Erytholeukemia). Described as above. It is filed as cell-based, human. The settings on record: Homo sapiens; K562 clonogenicity. The protocol:
as §3

For assay [6], the system named is MCF7-WT (Breast Carcinoma). The description is as above. The format is cell-based, human. To be noted: Homo sapiens; MCF7-WT clonogenicity. The protocol:
as §3

Another assay relates to NBL-W-N (Neuroblastoma). The description is as above. The format is cell-based, human. The settings on record: Homo sapiens; NBL-W-N clonogenicity. As to the method:
as §3

Assay [7] deals with LNCaP (Prostate Carcinoma). The assay is described as above. It is filed as cell-based, human. To be noted: Homo sapiens; LNCaP clonogenicity. The protocol: as §3
A further assay deals with IMR-32 (Neuroblastoma). The assay is described as above. To be noted: Homo sapiens; IMR-32 clonogenicity. The format is cell-based, human. As to the method: as §3
The next assay deals with SK-N-MC (Neuroblastoma). Described as above. It is filed as cell-based, human. To be noted: Homo sapiens; SK-N-MC clonogenicity. The protocol: as §3
Assay [8] has as its system MCF7-40F (Breast Carcinoma). The description is as above. It is filed as cell-based, human. The settings on record: Homo sapiens; MCF7-40F clonogenicity. The protocol: as §3
The next assay has as its system SMS-KAN (Neuroblastoma). Described as above. The format is cell-based, human. To be noted: Homo sapiens; SMS-KAN clonogenicity. The protocol:
as §3

A further assay deals with LA1-5S (Neuroblastoma). Described as above. It is filed as cell-based, human. The settings on record: Homo sapiens; LA1-5S clonogenicity. The protocol: as §3
In another assay the test system is NBAS-5 (Neuroblastoma). Described as above. To be noted: Homo sapiens; NBAS-5 clonogenicity. The format is cell-based, human. As to the method:
as §3

In the next assay the test system is SK-N-SH (Neuroblastoma). The assay is described as above. It is filed as cell-based, human. The settings on record: Homo sapiens; SK-N-SH clonogenicity. The protocol:
as §3

The subject of the next assay is MCF-7 cells (WAF). Kind of assay: Apoptosis in breast cancer cells, staining with WAF antibody / Western blot. It is filed as cell-based, human. The settings on record: 100 μM. As to the method: Induction of apoptosis by COMB and AB in MCF-7 cells was evaluated by staining cells with the WAF antibody and by Western blot analysis as described by Bacus et al., 1996, Oncogene 12:2535-2547.

The test system of assay [9] is P3HR-1 EBV-positive lymphoma cells. Kind of assay: [3H]-thymidine incorporation in EBV-positive lymphoma cells. It is filed as cell-based, human. The settings on record: combination with GC, 72 hours. As to the method: The effect of GOMB to AB was compared on EBV virus-associated tumors. EBV-positive cells from P3HR-1, a human lymphoma cell line, were incubated in growth medium with the specified concentration of GOMB, AB, ganciclovir (GC), or combination of these, for 72 hours, seeded in 96-well plates and pulsed with 1 μCi [^3 H]-thymidine/well during the last 16 hours of exposure to the compounds. Cells were harvested with a cell harvester, using glass microfiber filters. The incorporation of [^3 H]-thymidine was determined by retention of the acid insoluble fraction on filters and is expressed as CPM.
For orientation: Dividing cells build labelled thymidine or BrdU into new DNA.

Assay [10] concerns established tumor cell lines. Kind of assay: Clonogenicity of established tumor cell lines, all lines together. It is filed as cell-based, human. To be noted: in words. The protocol: as §3
For assay [11], the system named is K562 cells (HbF). As to the kind of experiment: HbF synthesis in K562 cells (ion-exchange HPLC). The format is cell-based, human. As to the method:
as §2

For assay [12], the system named is colon carcinoma, leukemia and retinoblastoma cell lines. To be noted: in vitro; cited from earlier work.

With `CCCC(=O)O` [BA, Butyric acid], in [1], the expression of c-myc entry is reported as “decrease in the expression”. For the same compound, in the assay on neoplastic cells, the “differentiating and antiproliferative activity” value was “potent differentiating and antiproliferative agent in a wide spectra of neoplastic cells”. In addition, the clinical antitumor efficacy result in the assay on cancer is “minimal or transient efficacy”.
Broadly, the IC50 is the concentration that inhibits the measured activity by half. For orientation: IC90 means the concentration needed for an effect of 90%. Consider `CCCC(=O)OCOC(=O)C(C)(C)C` [AN-9, pivaloyloxymethyl butyrate], for which the IC50 in the assay on HL-60 cells is 39 µM; in the assay on MCF7 cells, 180 µM; with HT-29 cells, 144 µM; in the assay with CFPAC cells, 55.9 µM. Also, the IC90 with HL-60 cells amounted to 59.9 µM; in the assay on MCF7 cells, 238 µM; with HT-29 cells, 231 µM; with CFPAC cells it was 89.8 µM.
Regarding `CCCC(=O)O` [AB, arginine butyrate, reference compound], the IC90 in assay [2] was 2120 µM; in assay [6] it was 9470 µM; with NBL-W-N (Neuroblastoma) it was 3070 µM; in [7], 6700 µM; with IMR-32 (Neuroblastoma), 3570 µM; with SK-N-MC (Neuroblastoma), 1310 µM. For the same compound, the IC90 in assay [8] came out at 3180 µM; in the assay on SMS-KAN (Neuroblastoma), 2080 µM; in the assay with LA1-5S (Neuroblastoma), 2680 µM; in the assay with NBAS-5 (Neuroblastoma), 13000 µM; in the assay with SK-N-SH (Neuroblastoma), 3400 µM; with HL-60 cells, 3460 µM. Further, the IC90 with MCF7 cells, with HT-29 cells and in the assay with CFPAC cells was more than 4000 µM in each case. The “cells positive for lipid staining” value in assay [3] is listed as “less than 1%”. In addition, the clinical efficacy entry in assay [4] was “moderate efficacy”. For the same compound, the “Percentage K562 Cells Containing HbF” value in the assay on K562 cells (HbF) [5] is listed as 3 ± 2%. Also, the IC50 is 226 µM in the assay with PC3 (Prostate Carcinoma); 772 µM in the assay on K562 (Erytholeukemia); 1500 µM in [6]; 489 µM with NBL-W-N (Neuroblastoma); 780 µM in assay [7]; 881 µM with IMR-32 (Neuroblastoma). Further, the IC50 was determined as 215 µM in the assay on SK-N-MC (Neuroblastoma); 817 µM in assay [8]; 1140 µM in the assay with SMS-KAN (Neuroblastoma); 1630 µM with LA1-5S (Neuroblastoma); 883 µM in the assay on NBAS-5 (Neuroblastoma); 998 µM in the assay on SK-N-SH (Neuroblastoma). For the same compound, the IC50 with HL-60 cells is 1640 µM; in the assay on MCF7 cells, more than 4000 µM; in the assay with HT-29 cells it was more than 4000 µM; in the assay with CFPAC cells, more than 4000 µM. Moreover, the “% Cells Expressing WAF” value in the assay on MCF-7 cells (WAF) was 23%. Moreover, in assay [9], the “interaction with ganciclovir (GC) in inhibiting proliferation” value is listed as “interact synergistically with GC”. For the same compound, the “inhibition of cell proliferation, dose dependence” value in assay [10] is reported as “inhibit cell proliferation in a dose-dependent manner”. For the same compound, the “HbF Synthesis in K562 Cells” value in the assay on K562 cells (HbF) [11] (0.01 mM) stood at 0.96 µg/mL; in the assay on K562 cells (HbF) [11] (0.05 mM), 0.95 µg/mL; in the assay with K562 cells (HbF) [11] (0.10 mM) it was 1.8 µg/mL; in the assay with K562 cells (HbF) [11] (0.50 mM), 3.69 µg/mL.
For the compound `CCCC(=O)[O-].[Na+]` [SB, sodium butyrate], the apoptosis result in assay [12] is listed as “produce apoptosis”.
